In patent publication US20240067632A1, “WEE1 Degrading Compounds and Uses Thereof” (Bristol-Myers Squibb Company, priority 2022, published 2024):
pEC50: −log10 of the molar value. Like-named read-outs stand apart in the source and are kept apart here.

How the values were obtained:
WEE1 = biological target: T1, WEE1 (Homo sapiens, UniProt P30291+Q96SW2); assay: WEE1-ePL degradation assay (LentiX-WEE1-ePL-GSPT1-ND cells, InCELL Hunter luminescence, 4 h); type: cell-based; conditions: 293T-LentiX WEE1-ePL cells; for DC50: read-out: 293T-LentiX WEE1-ePL Degradation 4 hr (EC50)
T1 construct: C-terminal ePL-tagged (DiscoverX, Fremont, CA) full-length WEE1 expression construct; expressed in transfected cells; host or cells: LentiX-HEK293T (Invitrogen), lentiviral transduction; co-expressing GSPT1-GN (G576N, lacking the first 158 amino acids)
In short: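 Luminescent readout (InCELL Hunter, 30 min RT) of WEE1-ePL levels in transduced HEK293T cells after 4 h compound exposure at 37 °C. Dosing: 10 points, 3-fold steps, top 1 uM or 10 uM. EC50 from four-parameter logistic fit; Ymax set by DMSO.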

MKN45 cells = assay: MKN45 cell proliferation assay (Cell-Titer-Glo, 120 h); type: cell-based; conditions: for pEC50: Homo sapiens, MKN-45, 120 h, Cell-Titer-Glo, read-out: MKN45 Cell Prolif. 120 hr (EC50); for MKN45 Cell Prolif. 120 hr (Ymin-Obs): minimal percent of DMSO control observed in the concentrations tested
In short: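 Growth inhibition was read as blank-corrected Cell-Titer-Glo luminescence expressed as percent DMSO control after 120 h at 37 C, 400 cells/well. Compounds tested in triplicate as 10-point half-log series from 1 or 10 uM, 0.1% DMSO; four-parameter fit gave EC50, and lowest observed percent control was reported as Ymin-obs.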

[1] = lower limit of the fit (0 = luciferase inhibitor, Ymax = DMSO control)
[2] = lower limit of the fit (Ymin=0 luciferase inhibitor, Ymax DMSO control)

Row | 293T-LentiX WEE1-ePL Degradation 4 hr (Ymin) (WEE1; [1]) | DC50 (WEE1) [nM] | pEC50 (MKN45 cells; growth inhibition) | 293T-LentiX WEE1-ePL Degradation 4 hr (Ymin) (WEE1; [2]) | pEC50 (MKN45 cells) | SMILES | MKN45 Cell Prolif. 120 hr (Ymin-Obs) (MKN45 cells)
1 | 32 | 2.41 | 8.58 |  |  | CC1(C)CN(c2ccc3cc(CN4CC[C@H](Oc5ccc6c(c5)CN(C5CCC(=O)NC5=O)C6=O)C4)ccc3n2)CCO1 (stereo partly drawn) [3-(5-{[(3S)-1-{[2-(2,2-dimethylmorpholin-4-yl)quinolin-6-yl]methyl}pyrrolidin-3-yl]oxy}-1-oxo-2,3-dihydro-1H-isoindol-2-yl)piperidine-2,6-dione] | 10.48
2 | 28 | 1.24 | 8.96 |  |  | O=C1CCC(N2Cc3cc(O[C@H]4CCN(Cc5cc(F)c6nc(C7CCOCC7)ccc6c5)C4)ccc3C2=O)C(=O)N1 (stereo partly drawn) [3-(5-{[(3S)-1-{[8-fluoro-2-(oxan-4-yl)quinolin-6-yl]methyl}pyrrolidin-3-yl]oxy}-1-oxo-2,3-dihydro-1H-isoindol-2-yl)piperidine-2,6-dione] | 7.098
3 | 40.56 | 74.7 | 6.22 |  |  | O=C1CCC(N2Cc3cc(O[C@H]4CCN(Cc5ccc6[nH]c(=O)ccc6c5)C4)ccc3C2=O)C(=O)N1 (stereo partly drawn) [3-(1-oxo-5-{[(3S)-1-[(2-oxo-1,2-dihydroquinolin-6-yl)methyl]pyrrolidin-3-yl]oxy}-2,3-dihydro-1H-isoindol-2-yl)piperidine-2,6-dione] | 17.75
4 | 33.5 | 5.55 | 7.91 |  |  | O=C1CCC(N2Cc3cc(O[C@H]4CCN(Cc5cc6cc(C7CCOCC7)ccc6cn5)C4)ccc3C2=O)C(=O)N1 (stereo partly drawn) [3-(5-{[(3S)-1-{[6-(oxan-4-yl)isoquinolin-3-yl]methyl}pyrrolidin-3-yl]oxy}-1-oxo-2,3-dihydro-1H-isoindol-2-yl)piperidine-2,6-dione] | 13.12
5 | 88.5 |  | < 5.00 |  |  | Cc1ccc2cc(CN3C[C@H](C)[C@H](Oc4ccc5c(c4)CN(C4CCC(=O)NC4=O)C5=O)C3)ccc2n1 (stereo partly drawn) [3-(5-{[(3S,4S)-4-methyl-1-[(2-methylquinolin-6-yl)methyl]pyrrolidin-3-yl]oxy}-1-oxo-2,3-dihydro-1H-isoindol-2-yl)piperidine-2,6-dione] | 85.96
6 | 31.5 | 1.73 | 9.02 |  |  | O=C1CCC(N2Cc3cc(O[C@H]4CCN(Cc5ccc6nc(N7CCCCC7=O)ccc6c5)C4)ccc3C2=O)C(=O)N1 (stereo partly drawn) [3-(1-oxo-5-{[(3S)-1-{[2-(2-oxopiperidin-1-yl)quinolin-6-yl]methyl}pyrrolidin-3-yl]oxy}-2,3-dihydro-1H-isoindol-2-yl)piperidine-2,6-dione] | 7.56
7 | 33 | 3.1 | 7.76 |  |  | Cc1ccc2cc(CN3C[C@@H](C)[C@H](Oc4ccc5c(c4)CN(C4CCC(=O)NC4=O)C5=O)C3)ccc2n1 (stereo partly drawn) [3-(5-{[(3S,4R)-4-methyl-1-[(2-methylquinolin-6-yl)methyl]pyrrolidin-3-yl]oxy}-1-oxo-2,3-dihydro-1H-isoindol-2-yl)piperidine-2,6-dione] | 12.51
8 |  | 1.1 |  | 29.99 | 8.35 | O=C1CC[C@H](N2Cc3cc(O[C@H]4CCN(Cc5cc(Cl)c6nc(C7CCOCC7)ccc6c5)C4)ccc3C2=O)C(=O)N1 [(3S)-3-(5-{[(3S)-1-{[8-chloro-2-(oxan-4-yl)quinolin-6-yl]methyl}pyrrolidin-3-yl]oxy}-1-oxo-2,3-dihydro-1H-isoindol-2-yl)piperidine-2,6-dione] | 10.22
9 | 35 | 45.9 | 7.81 |  |  | O=C1CCC(N2Cc3cc(O[C@H]4CCN(Cc5ccc6nc(N7C[C@H]8CC[C@@H](C7)O8)ncc6c5)C4)ccc3C2=O)C(=O)N1 (stereo partly drawn) [3-(5-{[(3S)-1-({2-[(1R,5S)-8-oxa-3-azabicyclo[3.2.1]octan-3-yl]quinazolin-6-yl}methyl)pyrrolidin-3-yl]oxy}-1-oxo-2,3-dihydro-1H-isoindol-2-yl)piperidine-2,6-dione] | 11.04
10 | 34 | 1.78 | 8.77 |  |  | CC1(C)COCC[C@@H]1c1ccc2cc(CN3CC[C@H](Oc4ccc5c(c4)CN(C4CCC(=O)NC4=O)C5=O)C3)ccc2n1 (stereo partly drawn) [3-(5-{[(3S)-1-({2-[(4S)-3,3-dimethyloxan-4-yl]quinolin-6-yl}methyl)pyrrolidin-3-yl]oxy}-1-oxo-2,3-dihydro-1H-isoindol-2-yl)piperidine-2,6-dione] | 6.945
11 | 34.42 | 0.306 | 8.68 |  |  | O=C1CC[C@H](N2Cc3cc(O[C@H]4CCN(Cc5ccc6nc(C7CCOCC7)ccc6c5F)C4)ccc3C2=O)C(=O)N1 [(3S)-3-(5-{[(3S)-1-{[5-fluoro-2-(oxan-4-yl)quinolin-6-yl]methyl}pyrrolidin-3-yl]oxy}-1-oxo-2,3-dihydro-1H-isoindol-2-yl)piperidine-2,6-dione] | 12.14
12 |  | 1.69 |  | 40.44 | 8.00 | CC(=O)N1CCN(c2ccc3cc(CN4CC[C@H](Oc5ccc6c(c5)CN([C@H]5CCC(=O)NC5=O)C6=O)C4)ccc3n2)CC1 [(3S)-3-(5-{[(3S)-1-{[2-(4-acetylpiperazin-1-yl)quinolin-6-yl]methyl}pyrrolidin-3-yl]oxy}-1-oxo-2,3-dihydro-1H-isoindol-2-yl)piperidine-2,6-dione] | 17.95
13 | 29.38 | 24.6 | 7.16 |  |  | O=C1CCC(N2Cc3cc(O[C@H]4CCN(Cc5cncc6c5CCCO6)C4)ccc3C2=O)C(=O)N1 (stereo partly drawn) [3-(1-oxo-5-{[(3S)-1-({2H,3H,4H-pyrano[2,3-c]pyridin-5-yl}methyl)pyrrolidin-3-yl]oxy}-2,3-dihydro-1H-isoindol-2-yl)piperidine-2,6-dione] | 11.03
14 | 28 | 5.48 | 7.91 |  |  | COc1ccc2cc(CN3CC[C@H](Oc4ccc5c(c4)CN(C4CCC(=O)NC4=O)C5=O)C3)nnc2c1 (stereo partly drawn) [3-(5-{[(3S)-1-[(7-methoxycinnolin-3-yl)methyl]pyrrolidin-3-yl]oxy}-1-oxo-2,3-dihydro-1H-isoindol-2-yl)piperidine-2,6-dione] | 7.52
15 |  | 5.9 |  | 32.37 | 8.59 | COC[C@@H]1CC[C@H](c2ccc3cc(CN4CC[C@H](Oc5ccc6c(c5)CN(C5CCC(=O)NC5=O)C6=O)C4)ccc3n2)C1 (stereo partly drawn) [3-(5-{[(3S)-1-({2-[(1S,3R)-3-(methoxymethyl)cyclopentyl]quinolin-6-yl}methyl)pyrrolidin-3-yl]oxy}-1-oxo-2,3-dihydro-1H-isoindol-2-yl)piperidine-2,6-dione] | 8.786
16 | 28 | 29.8 | 7.17 |  |  | CNC(=O)c1ccc2cc(CN3CC[C@H](Oc4ccc5c(c4)CN(C4CCC(=O)NC4=O)C5=O)C3)ncc2c1 (stereo partly drawn) [3-{[(3S)-3-{[2-(2,6-dioxopiperidin-3-yl)-1-oxo-2,3-dihydro-1H-isoindol-5-yl]oxy}pyrrolidin-1-yl]methyl}-N-methylisoquinoline-7-carboxamide] | 7.51
17 | 37 | 35.5 | 7.66 |  |  | O=C1CCC(N2Cc3cc(O[C@H]4CCN(Cc5ccc6nc(N7CC8(COC8)C7)ncc6c5)C4)ccc3C2=O)C(=O)N1 (stereo partly drawn) [3-(5-{[(3S)-1-[(2-{2-oxa-6-azaspiro[3.3]heptan-6-yl}quinazolin-6-yl)methyl]pyrrolidin-3-yl]oxy}-1-oxo-2,3-dihydro-1H-isoindol-2-yl)piperidine-2,6-dione] | 15.5
18 |  | 1.19 |  | 26.79 | 8.95 | CC1(C)C[C@@H](c2ccc3cc(CN4CC[C@H](Oc5ccc6c(c5)CN([C@H]5CCC(=O)NC5=O)C6=O)C4)ncc3c2)CCO1 [(3S)-3-(5-{[(3S)-1-({7-[(4S)-2,2-dimethyloxan-4-yl]isoquinolin-3-yl}methyl)pyrrolidin-3-yl]oxy}-1-oxo-2,3-dihydro-1H-isoindol-2-yl)piperidine-2,6-dione] | 9.866
19 | 29.42 | 2.96 | 8.14 |  |  | O=C1CCC(N2Cc3cc(O[C@H]4CCN(Cc5ccc6nc(C(F)F)ccc6c5)C4)ccc3C2=O)C(=O)N1 (stereo partly drawn) [3-(5-{[(3S)-1-{[2-(difluoromethyl)quinolin-6-yl]methyl}pyrrolidin-3-yl]oxy}-1-oxo-2,3-dihydro-1H-isoindol-2-yl)piperidine-2,6-dione] | 9.875
